Consider two compounds from patent publication US11878972B2, “Treatment of neurological disorders” (TORQUR AG, priority 2016, dated 2024).

For series [1], the system named is S6 phosphorylation (S235/236). Nature of the series: mTOR signaling in brain samples of pilocarpine pre-treated and naïve mice (western blot). It counts as in vivo, mouse. As to conditions: for decrease of S6 phosphorylation (S235/236) versus control: brain, 3 hours after single oral dose: Cpd. 3 40 mg/kg, Cpd. 8 25 mg/kg, everolimus 5 mg/kg. The method, then:
A ramping-up dosing protocol was used which has the advantage that pilocarpine can be individually applied according to the susceptibility of each mouse. Pilocarpine (Sigma-Aldrich, Germany) was administered to female NMRI mice intraperitoneally at a dose of 100 mg/kg (Pilo-SE group). […] To reduce peripheral side effects of pilocarpine, methylscopolamine (Sigma-Aldrich, Germany) was administered 30 minutes prior to the first injection of pilocarpine. Animals were continuously monitored and duration of convulsive SE was registered [referred to Racine's scale. SE onset was defined as continuous ongoing seizure activity following occurrence of one or two generalized tonic-clonic seizures [stage 4 or 5 on the Racine scale]. SE was characterized by head nodding in an upright (sitting) body position, Straub tail, and slight to moderate convulsions of forelimbs, sometimes interrupted by further generalized tonic-clonic seizures. In order to reduce mortality, SE was terminated by diazepam (10 mg/kg i.p.; diazepam-ratiopharm 10, injection solution) 90 min after SE onset. […] In the sham-SE group mice were treated with the same treatment scheme as the pilo-SE group but pilocarpine was replaced by 0.9% sodium chloride solution. The mortality in the pilo-SE model in mice is relatively high (overall about 50%) and can vary markedly between experimental groups/days. Therefore we had to start with a large number of mice for SE induction in order to reliably obtain a group size of 20-22 animals for the MEST.
Brain samples from pilocarpine treated mice and untreated mice were snap frozen and tissue was lysed in buffer containing 25 mM Tris-HCl, pH 8, 50 mM NaCl, 0.5% (w/v) sodium deoxycholate (DOC), and 0.5% (w/v) Triton X-100 and supplemented with complete protease inhibitor (Roche, Mannheim, Germany) and Phosphostop (NEB, USA). Disruption of cell lysates was performed by drawing up the cell suspension twenty times into a syringe with a small gauge needle (21 G) on ice. Protein concentrations in the lysates were determined by using the Pierce BCA Protein Assay kit (Thermo Scientific, Bonn, Germany) according to the manufacturer's instructions. […] Membranes were incubated with primary antibodies anti S6 1:1000, anti S6 Phospho Serin (240/244) 1:1000, anti S6 Phospho Serin (235/236) 1:2000 (NEB) and anti-Actin 1:100 (Sigma-Aldrich) for 1 h in 2% milk in PBST at room temperature (RT) and washed three times for 10 min in PBS-T. Secondary antibodies anti-rabbit-HRP 1:1000 (Dako, Hamburg, Germany) were incubated for 1 h in 2% milk in PBST at RT and washed three times for 10 min in PBST. Proteins were detected by enhanced chemiluminescence using SuperSignal West Femto Chemiluminescent Substrate (Thermo Scientific) and the ChemiDoc system (Bio-Rad, Munich, Germany) with QuantityOne software (Bio-Rad) according to the manufacturer's protocol. Relative protein expressions were quantified densitometrically with QuantityOne (Bio-Rad) software and calculated by normalization to the reference signals of actin with GraphPad Prism software (GraphPad, San Diego, CA, USA).
Pilocarpine pre-treated and naïve mice were treated with a single oral dose of Cpd. 3 (40 mg/kg), Cpd. 8 (25 mg/kg), everolimus (5 mg/kg) or vehicle. 5 mice per group were utilized and sacrificed after 3 hours.

Series [2] deals with female NMRI mice, nonepileptic (sham-SE) and epileptic (pilo-SE). Nature of the series: Maximal electroshock seizure threshold test (MEST). It counts as in vivo, mouse. The method, then:
A total of 166 adult female NMRI mice were used obtained from Charles River (Sulzfeld, Germany) at a weight range of 21-25 g (mice). Animals were kept under the following conditions: Housing: Animals were housed in groups of max. 8 mice under controlled conditions (temperature: 22±1° C.; humidity: 50% 60%/), under a 12-h light-dark cycle (lights on at 6:00 a.m.). Feeding: Standard laboratory chow (Altromin 1324 standard diet, Altromin Spezialfutter GmbH, Lage, Germany) was provided ad libitum. Drinking water: Tap water was provided ad libitum.
The MEST determines a population seizure threshold in groups of ˜20 animals and not the threshold for an individual animal. In the present study, the MEST was determined by a staircase procedure as previously described. A stimulator (BMT Medizintechnik, Berlin, Germany) that delivered a constant current (adjustable from 1-200 mA regardless of the impedance of the animal) with sinusoidal pulses (50/sec) for 0.2 sec was used.
Current administration was performed via bilateral transcorneal stimulation (using copper electrodes). Before transcorneal stimulation, a drop of tetracaine solution (2%) was administered to the eyes of the mouse for local anesthesia. Two minutes later, the mouse was restrained by hand to press the copper electrodes on both corneas while the stimulus was applied by stepping on a foot pedal switch connected with the stimulator. Electrodes were covered with soft leather and soaked with saline before each current application. […] The first stimulation was started with a current near to the control threshold.
3 (HCl): 40/100 mg in 10 ml (Suspension; 5% PEG 400 and 2% Tween 80, HPBCD (10%6)) • Cpd. 8 (HCl): 12.5/25 mg in 10 ml (5% PEG 400 and 2% Tween 80, HPBCD (10%))
Statistical analysis were calculated using Student's t-test. All tests were used two-sided; a P<0.05 was considered significant.
We performed no special tests for the determination of adverse effects. Mice were observed about 30 min after injection in their home cages for obvious sedation or reduction of wellbeing. Five minutes before electrical stimulation mice were again observed in their home cages and two minutes before stimulation during handling procedure for treatment with local anaesthesia. Every obvious variation from normal behavior was noted. Only phenobarbital induced noticeable sedation which lasted for more than 60 min. All other test drugs (including vehicle solutions) were tolerated without any obvious adverse effects.

Another series is described as follows: PK in B57BL/6J mice. Particulars: for half-life: B57BL/6J, in vivo.
The mark [3] stands for this setting: epileptic (pilocarpine pre-treated) mice.
Setting [4] is: 40 mg/kg Cpd. 3 p.o., pretreatment 1 h.
The mark [5] stands for this setting: 40 mg/kg Cpd. 3 p.o., pretreatment 3 h.
[6] abbreviates: 100 mg/kg Cpd. 3 p.o., pretreatment 3 h.
[7] abbreviates: 12.5 mg/kg Cpd. 8 p.o., pretreatment 3 h.
Setting [8] is: 25 mg/kg Cpd. 8 p.o., pretreatment 1 h.
[9] abbreviates: 25 mg/kg Cpd. 8 p.o., pretreatment 3 h.
The mark [10] stands for this setting: 25 mg/kg Cpd. 8 p.o., pretreatment 24 h.

Method for PK in B57BL/6J mice: 8, 50 mg/kg was administered to B57BL/6J mice by gavage. Animals were housed in temperature controlled rooms with free access to food and water. Test items were weighed in a glass vial and dissolved first in DMSO. Tween 80 was added subsequently and finally, the formulation was completed with HPβCD 20%. […] Blood was collected in tubes containing K3-EDTA and stored on ice until centrifugation at 3000×g (10 min. 4° C.). The plasma supernatant was separated and kept at −20° C. until being assayed. Thigh muscle and brain of mice were snap frozen. The brain and muscle samples were homogenized in PBS using the Precellys 24/Dual homogeniser.
Samples were analyzed by LC-MS. Calibration standards were prepared by spiking 20 μl of drug free blank plasma with calibration solution. […] Samples were vigorously shaken and centrifuged for 10 minutes at 6000 g and 20° C. […] An aliquot was transferred to 200 μl sampler vials and subsequently subjected to LC-MS with an injection volume of 1.5 μl.

Take `Nc1cc(C(F)F)c(-c2nc(N3C4CCC3COC4)nc(N3C4CCC3COC4)n2)cn1` [Compound 3, 5-(4-(3-oxa-8-azabicyclo[3.2.1]octan-8-yl)-6-(3-oxa-8-azabicyclo[3.2.1]octan-8-yl)-1,3,5-triazin-2-yl)-4-(difluoromethyl)pyridin-2-amine]: the “decrease of S6 phosphorylation (S235/236) versus control” value (shortened to “decrease of S6 phosphorylation”) in series [1] (setting [3]) is on record as 4.3 fold. The “S6 phosphorylation / mTOR signaling in brain (FIG. 3B)” value in series [1] (epileptic/pilocarpine pre-treated and naïve mice, single oral dose) is reported as “significantly inhibited S6 phosphorylation in brain”. Moreover, in series [1] (naïve mice), the “decrease of S6 phosphorylation” value was determined as 4.6 fold. For the same compound, in series [2] (setting [4]), the “CC50 Pilo-SE (epileptic)” value is 17.99 ± 1.39 mA; the “CC50 Sham-SE (nonepileptic)” value is 15.14 ± 1.06 mA; the “Threshold difference between nonepileptic and epileptic” value stood at 19%. Moreover, in series [2] (setting [5]), the “CC50 Pilo-SE (epileptic)” value amounted to 18.20 ± 1.35 mA; the “CC50 Sham-SE (nonepileptic)” value was determined as 17.49 ± 1.20 mA; the “Threshold difference between nonepileptic and epileptic” value is 4%; the “Threshold difference between vehicle and drug threshold, nonepileptic” value is 6%. In series [2] (setting [6]), the “CC50 Pilo-SE (epileptic)” value was 20.85 ± 1.38 mA; the “CC50 Sham-SE (nonepileptic)” value amounted to 16.72 ± 1.72 mA; the “Threshold difference between nonepileptic and epileptic” value was 25%; the “Threshold difference between vehicle and drug threshold, epileptic” value was determined as 9%. The “Threshold difference between vehicle and drug threshold, nonepileptic” value in series [2] (setting [6]) is 2%. In addition, the “anticonvulsant effect (overall)” value in series [2] (parameters tested in this study) is given as “slight but inconsistent anticonvulsant effect”. In the series “PK in B57BL/6J mice” (mouse, po, 50 mg/kg, single), the “Brain AUC” value was 30.6 µg·h/mL and the “Brain Cmax” value is 7.7 µg/g.
Consider `C[C@H]1COCCN1c1nc(-c2cnc(N)cc2C(F)F)nc(N2CCOCC2)n1` [Compound 8, (S)-4-(difluoromethyl)-5-(4-(3-methylmorpholino)-6-morpholino-1,3,5-triazin-2-yl)pyridin-2-amine], for which the “decrease of S6 phosphorylation” value was 2.8 fold in series [1] (setting [3]) and 10.9 fold in series [1] (naïve mice). The “Threshold difference between nonepileptic and epileptic” value in series [2] (setting [7]) is recorded as −1%; in series [2] (setting [8]), −14%; in series [2] (setting [9]), −22%; in series [2] (setting [10]), 5%. In addition, the “Threshold difference between vehicle and drug threshold, epileptic” value is reported as −1% in series [2] (setting [7]), −9% in series [2] (setting [8]), 6% in series [2] (setting [9]) and −2% in series [2] (setting [10]). Moreover, the “Threshold difference between vehicle and drug threshold, nonepileptic” value in series [2] (setting [7]) is on record as 8%; in series [2] (setting [9]), 30%. Also, the “decrease of the CC50” value in series [2] (Cpd. 8, epileptic mice, pretreatment time reduced to 1 h) was 9%. The half-life in the series “PK in B57BL/6J mice” (mouse, oral, 50 mg/kg, half-life, as stated in the discussion of the Tsc1 GFAP study) is 300 min; in the series “PK in B57BL/6J mice” (mouse, po, 50 mg/kg, half-life in mice (estimated), mice, single oral 50 mg/kg), 282 to 288 min. The oral bioavailability entry in “PK in B57BL/6J mice” (mice, single oral 50 mg/kg) is on record as “good oral bioavailability”.
